This note sets out measurements from PubChem BioAssay (NCI).

Test systems include BT-549 breast; HCT-116 colon; K-562 leukemia; MCF7 breast; NCI/ADR-RES ovarian; OVCAR-3 ovarian; SF-295 CNS; SW-620 colon; DLD-1 colon; DMS 114 small cell lung; DMS 273 small cell lung; KM20L2 colon.
Test in all cases: growth of human tumour cells (NCI), 48 h

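Method: 48-hour compound exposure of cells in 96-well plates, five concentrations, linear interpolation of endpoints. GI50: concentration for 50% inhibition of growth. At the TGI there is no net growth.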 Where only a bound is given, the exact number is not on record here.

With `Cn1c(=O)sc2cc(C(=S)N3CCOCC3)ccc21`, the TGI in the test with BT-549 breast, with HCT-116 colon, in the test with K-562 leukemia, in the test on MCF7 breast, with NCI/ADR-RES ovarian and in the test on OVCAR-3 ovarian was greater than 100 µM in each case. Besides, the TGI in the test on SF-295 CNS and in the test with SW-620 colon was greater than 100 µM each time.

For the compound `CCOC(=O)/C(C#N)=C/N(CC)/N=C/c1ccccc1`, the TGI in the test with BT-549 breast, with HCT-116 colon, with K-562 leukemia, in the test with MCF7 breast, with NCI/ADR-RES ovarian and with OVCAR-3 ovarian was greater than 100 µM throughout. The TGI in the test with SF-295 CNS and with SW-620 colon was greater than 100 µM throughout.

As to `CCOc1ccc(-c2oc(/C=N/NS(=O)(=O)c3ccc(C)cc3)c([N+](=O)[O-])c2-c2ccc(OCC)cc2)cc1`, the TGI with DLD-1 colon is 17.6 µM; in the test on DMS 114 small cell lung, 12 µM; in the test with DMS 273 small cell lung it was 23 µM; in the test on HCT-116 colon, 3.92 µM; in the test on K-562 leukemia, greater than 56.3 µM; in the test with KM20L2 colon, 31.9 µM. Further, the TGI in the test with OVCAR-3 ovarian is 43.3 µM; with SF-295 CNS it was 38.4 µM; with SW-620 colon, 7.76 µM.

In the case of `Oc1[nH]c2ccccc2c1/C=c1/cc2c(c(-c3ccc(C(F)(F)F)cc3)n1)=Nc1ccccc1-2`, the GI50 in the test with BT-549 breast is 4.17 µM; in the test on HCT-116 colon, 2.9 µM; in the test with K-562 leukemia it was 2.57 µM; with MCF7 breast, 1.53 µM; with NCI/ADR-RES ovarian it was 1.9 µM; with OVCAR-3 ovarian it was 2.36 µM. Also, the GI50 is 2.99 µM in the test with SF-295 CNS and 2.4 µM with SW-620 colon. Moreover, the TGI in the test with BT-549 breast turned out to be 15.7 µM; in the test on HCT-116 colon, 10.1 µM; in the test with K-562 leukemia, 14.9 µM; in the test on MCF7 breast, 5.14 µM; with NCI/ADR-RES ovarian, 18.8 µM; in the test with OVCAR-3 ovarian, 7.69 µM. Besides, the TGI in the test on SF-295 CNS came out at 28.4 µM; in the test with SW-620 colon it was 13 µM.

As for `C=C1CC(Cn2cc(Br)c(=O)[nH]c2=O)(c2ccc(-c3ccccc3)cc2)OC1=O` (configuration not stated), the TGI in the test on BT-549 breast was 3.31 µM; in the test on HCT-116 colon, 1.32 µM; with K-562 leukemia, greater than 100 µM; with MCF7 breast it was 1.75 µM; in the test with NCI/ADR-RES ovarian it was 4.82 µM; in the test with OVCAR-3 ovarian, 2.98 µM. Moreover, the TGI amounted to 18.5 µM in the test on SF-295 CNS and 1.58 µM with SW-620 colon.

For `CCCCCCOP(=O)(OCCCCCC)OC(C(=O)OC)C(F)(F)F` (configuration not stated), the TGI in the test on BT-549 breast, with HCT-116 colon, with K-562 leukemia, in the test with MCF7 breast, in the test on NCI/ADR-RES ovarian and in the test on OVCAR-3 ovarian was greater than 100 µM throughout. Further, the TGI in the test with SF-295 CNS and with SW-620 colon was greater than 100 µM in each case.

On to `COc1ccc(-c2nc(-c3cnccn3)n(C3OC(CO)C(O)C(O)C3O)n2)cc1` (configuration not stated), for which the TGI in the test on BT-549 breast, in the test with HCT-116 colon, with K-562 leukemia, in the test with MCF7 breast, with NCI/ADR-RES ovarian and in the test with OVCAR-3 ovarian was greater than 100 µM throughout. Besides, the TGI in the test with SF-295 CNS and with SW-620 colon was greater than 100 µM each time.

As to `CCN(CC)CCCCC1CCN(CC(=O)N2c3ccccc3NC(=O)CC2C)CC1` (configuration not stated), the TGI in the test with DMS 114 small cell lung, with DMS 273 small cell lung, in the test with HCT-116 colon, in the test on K-562 leukemia, in the test on KM20L2 colon and in the test with OVCAR-3 ovarian was greater than 100 µM in each case. Besides, the TGI in the test with SF-295 CNS and in the test with SW-620 colon was greater than 100 µM throughout.

With `CC(=O)NC1=C(NCC(C)C)C(=O)c2ccccc2C1=O`, the TGI with DLD-1 colon turned out to be 40.1 µM; in the test on DMS 114 small cell lung, 31.7 µM; with DMS 273 small cell lung it was 30.7 µM; with HCT-116 colon, 35.2 µM; in the test with K-562 leukemia, 36.7 µM; in the test with KM20L2 colon, 43.9 µM. The results for the TGI in the test with OVCAR-3 ovarian, in the test with SF-295 CNS and with SW-620 colon were 32.4 µM, greater than 100 µM and 33.1 µM, respectively.

In the case of `O=[N+]([O-])/C=C/c1cn(CCCCCn2cc(/C=C/[N+](=O)[O-])c3ccccc32)c2ccccc12`, the TGI was determined as 6.72 µM in the test with BT-549 breast; 0.824 µM with HCT-116 colon; 3.7 µM in the test on K-562 leukemia; 1.62 µM with MCF7 breast; 35.4 µM in the test with NCI/ADR-RES ovarian; 4.66 µM in the test on OVCAR-3 ovarian. Besides, the TGI was greater than 43.9 µM in the test with SF-295 CNS and 2.57 µM with SW-620 colon.

Take `Cc1ccc(/C=C2\CN(C)CC3C2=NC(=S)NC3c2ccc(C)cc2)cc1` (configuration not stated): the TGI with BT-549 breast, in the test on HCT-116 colon, with K-562 leukemia, with MCF7 breast, in the test with NCI/ADR-RES ovarian and in the test on OVCAR-3 ovarian was greater than 100 µM throughout. Moreover, the TGI with SF-295 CNS and in the test on SW-620 colon was greater than 100 µM throughout.

With `COC(=O)C(C(=O)C(=O)NC1Nc2ccc(C)cc2S1)c1nc2ccc(Cl)cc2[nH]c1=O` (configuration not stated), the TGI in the test on BT-549 breast, in the test on HCT-116 colon, in the test with K-562 leukemia, in the test on MCF7 breast, in the test on NCI/ADR-RES ovarian and with OVCAR-3 ovarian was greater than 100 µM in each case. Moreover, the TGI with SF-295 CNS and with SW-620 colon was greater than 100 µM each time.

In the case of `COc1ccc(C=Nc2ccc(-c3nc4ccccc4[nH]3)cc2)cc1OC`, the TGI in the test on BT-549 breast, in the test on HCT-116 colon, in the test on K-562 leukemia, with MCF7 breast, with NCI/ADR-RES ovarian and in the test with OVCAR-3 ovarian was greater than 100 µM in each case. Also, the TGI in the test with SF-295 CNS and in the test on SW-620 colon was greater than 100 µM each time.

In the case of `CCCNC(=O)CCC(C)[C@H]1CCC2C3C(C[C@H](OC(C)=O)[C@@]21C)[C@@]1(C)CCC2(C[C@H]1C[C@H]3OC(C)=O)OOC1(CCCCC1)OO2` (some centres not stated), the TGI in the test with BT-549 breast is 12.4 µM; in the test with HCT-116 colon, greater than 61.5 µM; in the test on K-562 leukemia, greater than 60.8 µM; in the test on MCF7 breast it was greater than 56.1 µM; in the test with NCI/ADR-RES ovarian, 8.45 µM; with OVCAR-3 ovarian, 5.3 µM. Further, the figures for the TGI in the test with SF-295 CNS and in the test on SW-620 colon were 39.7 µM and greater than 75.5 µM, respectively.
